Patent US7855212B2, “Pyridinyl acetonitriles” (Merck Serono SA, priority 2003, dated 2010)

How the values were obtained:
human GSK3 beta = human GSK3 beta (Homo sapiens, UniProt P49841); test: GSK3β in vitro assay (33P phosphorylation of phospho GS2 peptide); assay type: biochemical; conditions: in vitro potency on human GSK3 beta; read-out: IC50 (μM) GSK3beta
Procedure: GSK3β Assay (see Bioorg. Med. Chem. Lett by Naerum et al. 12 p. 1525-1528 (2002))
In a final reaction volume of 25 μl, GSK3β (h) (5-10 mU) is incubated with 8 mM MOPS pH 7.0, 0.2 mM EDTA, 20 μM […](p)EDEEE (being the GSK3 substrate; a phospho GS2 peptide), 10 mM Mg Acetate and [γ-^33P-ATP] (Specific activity approx. 500 cpm/pmol, concentration as required). The reaction is initiated by the addition of Mg^2+ [γ-^33P-ATP]. After incubation for 40 minutes at room temperature, the reaction is stopped by the addition of 5 μl of a 3% phosphoric acid solution. 10 μl of the reaction is then spotted onto a P30 filtermat and washed three times for 5 minutes in 50 mM phosphoric acid and once in methanol prior to drying and the degree of phosphorylation of the substrate is determined by scintillation counting.

rat JNK3 = rat JNK3 (Rattus norvegicus, UniProt P49187); test: JNK3 in vitro assay (33P incorporation into c-Jun, SPA); assay type: biochemical; conditions: in vitro potency on rat JNK3; read-out: JUNK3 IC50
Procedure: The compounds of the present invention are inhibitors of JNKs. The phosphorylation of c-jun by JNK2 or JNK3 may be determined by monitoring the incorporation of ^33P into c-jun following the protocol below. The inhibitory activity of the compounds according to formula I, towards c-jun phosphorylation through JNK, is determined by calculating phosphorylation activity in the presence or absence of compounds according to formula I.
JNK3 and/or -2 assays are performed in 96 well MIT plates: incubation of 0.5 μg of recombinant, pre-activated GST-JNK3 or GST-JNK2 with 1 μg of recombinant, biotinylated GST-c-Jun and 2 μM ^33γ-ATP (2 nCi/μl), in the presence or absence of compounds according to formula I and in a reaction volume of 50 μl containing 50 mM Tris-HCl, pH 8.0; 10 mM MgCl2; 1 mM Dithiothreitol, and 100 μM NaVO4. The incubation is performed for 120 min. at R.T and stopped upon addition of 200 μl of a solution containing 250 μg of Streptavidine-coated SPA beads (Amersham, Inc.)*, 5 mM EDTA, 0.1% Triton X-100 and 50 μM ATP, in phosphate saline buffer.
After incubation for 60 minutes at RT, beads are sedimented by centrifugation at 1500×g for 5 minutes, resuspended in 200 μl of PBS containing 5 mM EDTA, 0.1% Triton X-100 and 50 μM ATP and the radioactivity measured in a scintillation β counter, following sedimentation of the beads as described above.

Sequence of rat JNK3 (P49187 whole entry): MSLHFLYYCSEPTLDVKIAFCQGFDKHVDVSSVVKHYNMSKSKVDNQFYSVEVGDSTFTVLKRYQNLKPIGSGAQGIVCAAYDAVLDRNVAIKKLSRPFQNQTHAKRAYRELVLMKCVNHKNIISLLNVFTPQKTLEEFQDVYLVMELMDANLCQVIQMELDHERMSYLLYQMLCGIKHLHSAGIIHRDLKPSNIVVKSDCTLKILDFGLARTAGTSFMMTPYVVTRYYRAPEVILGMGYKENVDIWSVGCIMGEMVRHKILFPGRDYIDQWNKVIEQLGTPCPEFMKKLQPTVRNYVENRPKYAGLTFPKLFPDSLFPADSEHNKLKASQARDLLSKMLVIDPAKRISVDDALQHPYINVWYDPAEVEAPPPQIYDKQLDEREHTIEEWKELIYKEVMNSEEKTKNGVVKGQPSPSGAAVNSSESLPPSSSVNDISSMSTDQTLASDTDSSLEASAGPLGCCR
Sequence of human GSK3 beta (P49841 whole entry): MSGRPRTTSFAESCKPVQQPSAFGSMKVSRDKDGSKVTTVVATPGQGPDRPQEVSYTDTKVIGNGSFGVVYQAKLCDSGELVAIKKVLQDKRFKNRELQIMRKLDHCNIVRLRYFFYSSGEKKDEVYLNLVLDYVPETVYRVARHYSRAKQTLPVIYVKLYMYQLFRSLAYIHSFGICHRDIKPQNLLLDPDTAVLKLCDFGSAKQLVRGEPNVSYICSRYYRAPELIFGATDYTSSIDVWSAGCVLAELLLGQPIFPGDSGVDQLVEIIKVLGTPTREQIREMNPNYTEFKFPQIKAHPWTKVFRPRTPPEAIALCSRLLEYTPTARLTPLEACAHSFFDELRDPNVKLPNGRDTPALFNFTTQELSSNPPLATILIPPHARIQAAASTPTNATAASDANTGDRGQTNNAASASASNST

Q: How did the IC50 (human GSK3 beta) turn out when `Cc1cnc(NCCc2cccnc2)nc1/C(C#N)=C1/C=CC=CN1` [Example 3, 4-pyrimidineacetonitrile, 5-methyl-2-[[2-(3-pyridinyl)ethyl]amino]-alpha-2(1H)-pyridinylidene-] was run?
A: 0.5 µM

Q: For `Cc1cnc(NCCc2ccc(N(C)C)nc2)nc1/C(C#N)=C1/C=CC=CN1` [Example 4, 4-pyrimidineacetonitrile, 2-[[2-[6-(dimethylamino)-3-pyridinyl]ethyl]amino]-5-methyl-alpha-2(1H)-pyridinylidene-], which IC50 (rat JNK3) is on record?
A: 480 nM

Q: `Cc1cnc(NC2CCCCC2)nc1/C(C#N)=C1/C=CC=CN1` [Example 8, 4-pyrimidineacetonitrile, 2-(cyclohexylamino)-5-methyl-alpha-2-pyridinyl-] was tested. Which IC50 (rat JNK3) did it give?
A: 70 nM

Q: Which IC50 (rat JNK3) does the source give for `Cc1cnc(NCC2CCCCC2)nc1/C(C#N)=C1/C=CC=CN1` [Example 9, 4-pyrimidineacetonitrile, 2-[(cyclohexylmethyl)amino]-5-methyl-alpha-2 pyridinyl-] here?
A: 486 nM

Q: For `Cc1cnc(NC2CCC2)nc1/C(C#N)=C1/C=CC=CN1` [Example 11, 4-pyrimidineacetonitrile, 2-(cyclobutylamino)-5-methyl-alpha-2(1H)-pyridinylidene], which IC50 (rat JNK3) is on record?
A: 106 nM

Q: For `Cc1cnc(NC2CCN(C(=O)OC(C)(C)C)CC2)nc1/C(C#N)=C1/C=CC=CN1` [Example 12, 1-piperidinecarboxylic acid, 4-[[4-[(E)-cyano-2(1H)-pyridinylidenemethyl]-5-methyl-2-pyrimidinyl]amino]-, 1,1-dimethylethyl ester], which IC50 (rat JNK3) is on record?
A: 1140 nM

Q: `CCN1C=CC=C/C1=C(\C#N)c1nc(NC2CCCC2)ncc1C` [Example 14, 4-pyrimidineacetonitrile, 2-(cyclopentylamino)-alpha-(1-ethyl-2(1H)-pyridinylidene)-5-methyl] was tested. Which IC50 (rat JNK3) did it give?
A: 6200 nM

Q: What does the source list for `Cc1cnc(NC2CC2)nc1/C(C#N)=C1/C=CC=CN1` [Example 15, 4-pyrimidineacetonitrile, 2-(cyclopropylamino)-5-methyl-alpha-2-pyridinyl-]?
A: IC50 (human GSK3 beta): 0.2 µM; IC50 (rat JNK3): 299 nM

Q: With `Cc1cnc(NC2CCN(Cc3ccccc3)CC2)nc1/C(C#N)=C1/C=CC=CN1` [Example 16, 4-pyrimidineacetonitrile, 5-methyl-2-[[1-(phenylmethyl)-4-piperidinyl]amino]-alpha-2(1H)-pyridinylidene-] as the compound, how does the IC50 (rat JNK3) read?
A: 665 nM

Q: `Cc1cnc(NCC(C)C)nc1/C(C#N)=C1/C=CC=CN1` [Example 20, 4-pyrimidineacetonitrile, 5-methyl-2-[(2-methylpropyl)amino]-alpha-2(1H)-pyridinylidene-] was tested. Which IC50 (rat JNK3) did it give?
A: 210 nM

Q: For `Cc1cnc(NC(C)C)nc1/C(C#N)=C1/C=CC=CN1` [Example 21, 4-pyrimidineacetonitrile, 5-methyl-2-[(1-methylethyl)amino]-alpha-2(1H)-pyridinylidene-], which IC50 (rat JNK3) is on record?
A: 310 nM

Q: How did the IC50 (rat JNK3) turn out when `Cc1cnc(N[C@H]2CCCC[C@@H]2O)nc1/C(C#N)=C1/C=CC=CN1` [Example 22, 4-pyrimidineacetonitrile, 2-[[(1S,2S)-2-hydroxycyclohexyl]amino]-5-methyl-alpha-2(1H)-pyridinylidene-] was run?
A: 740 nM

Q: `CCCC(C)Nc1ncc(C)c(/C(C#N)=C2/C=CC=CN2)n1` (stereo not drawn) [Example 25, 4-pyrimidineacetonitrile, 5-methyl-2-[(1-methylbutyl)amino]-alpha-2-pyridinyl-] was tested. Which IC50 (human GSK3 beta) did it give?
A: 0.17 µM

Q: `N#CC(=C1C=CNC=C1)c1ccnc(NCCc2cccnc2)n1` [Example 34, 4-pyrimidineacetonitrile, alpha-4-pyridinyl-2-[[2-(3-pyridinyl)ethyl]amino]-] was tested. Which IC50 (human GSK3 beta) did it give?
A: 1.5 µM

Q: How did the IC50 (human GSK3 beta) turn out when `CNc1nc(NCCc2cccnc2)nc(/C(C#N)=C2/C=CC=CN2)n1` [Example 49, 1,3,5-triazine-2-acetonitrile, 4-(methylamino)-alpha-2-pyridinyl-6-[[2-(3-pyridinyl)ethyl]amino]-] was run?
A: 7.7 µM

Q: Which IC50 (rat JNK3) does the source give for `Cc1cnc(Cl)nc1/C(C#N)=C1/C=CC=CN1` [Intermediate 5, 4-pyrimidineacetonitrile, 2-chloro-5-methyl-alpha-2(1H)-pyridinylidene-] here?
A: 2350 nM
